Assay: Fluorescence titration with copper(II) ion (one-photon and two-photon)
Assay type: binding
Experimental: Referring to FIG. 3(b), when small increments of copper(II) ion were added to ACCu2 in EtOH/HEPES (9/1 viv, pH=7.0), the TPEF intensity at the channel 2 (Ired) decreased gradually without any appreciable change at the channel 1 (Iblue).
The dissociation constant (Kd) can be calculated using Equation (2): […]
wherein I is the fluorescence intensity, Ifinal is the fluorescence intensity for the CU^2+-ACCu2 complex and Iinitial is the fluorescence intensity for ACCu2.
The dissociation constants (Kd^OP and Kd^TP) of ACCu2 for the OP and TP processes can be calculated from the fluorescence titration curves shown in FIG. 3(b). […] These indicate 1:1 complexation between the probe and the cation.
Referring to FIG. 5(a), the fluorescence intensities of ACCu2 according to the present disclosure measured by the OP (one-photon) and TP (two-photon) processes decreased by 10-fold in the presence of 200 μM of copper(II) ion. […] This means that quantitative measurement of copper(II) ion is possible in this concentration range. Moreover, the Ired/Iblue ratios determined in the two-photon mode were well fitted by the titration curve obtained in the one-photon mode.

## COCCOCCOCCOc1ccc2c(ccc3cc(C(=O)N4CCN(C(=O)c5ccc(CNC(=O)c6cc7cc8ccc(N(C)C)cc8cc7oc6=O)nc5)CC4)c(=O)oc32)c1 [ACCu2]
  detection limit for copper ion by TPM: 0.84 µM
OP and TP processes, in the presence of 200 μM copper(II) ion
  decrease of fluorescence intensity: 10 fold
Titration curve FIG. 5(b)
  copper(II) ion concentration range in which Ired/Iblue plot is linear: 0 to 0.25 µM

Reference: patent publication US9248202B2, “Two-photon probe for detecting copper(II) ion and quantitative estimation of copper(II) ion in human tissue using the same” (Korea University Research and Business Foundation, priority 2014, dated 2016)
